Test results published in patent publication US20160279269A1, “METHOD AND REAGENT FOR PREPARING A DIAGNOSTIC COMPOSITION” (GE HEALTHCARE AS, priority 2013, published 2016).

Assay: Measured osmolality of ioforminol injection solution, including on dilution and after autoclaving
Type: physicochemical
Method: Isotonicity—A solution is isotonic with human blood plasma if no net water migration takes place over the blood cell membranes after mixing the solution with human blood. This means that the measured osmolality of the solution is equal to that of human blood plasma (approx. 290 mOsmol/kg water). This is the goal for any parenteral drug formulation, being more important if injection volumes are relatively large (typically >10 ml) and if injection rate is fast.
Ioforminol 320 mg I/ml injection contains […]. With a molar weight of 1522,13 Dalton, this would be 420.3 mM. This concentrated solution contains 699 g water per litre. Density is 1.357 kg/litre, thus the weight of one litre Ioforminol 320 mg I/ml injection is 1.357 kg. Water is therefore only about half of the weight. Theoretical estimation of osmolality would be 601.5 mOsmol/kg water given 420.3 mM ioforminol, no dissociation under dissolution and 699 g water as solvent.
Knowing that blood plasma osmolality is approx. 290 mOsmol/kg water, such a solution would be hypertonic by a factor 2 even without other components/solutes. Yet measured osmolality of the complete formulation of ioforminol 320 mg I/ml was around 290 mOsmol/kg water. When one subtracts the contribution to osmolality of the other components in the formulation (Tris, EDTA, NaCl and CaCl2), the net contribution of ioforminol was around 129 mOsmol/kg, not around 600 mOsmol/kg. This is approximately 22% of the expected theoretical osmolality if every ioforminol molecule would act as one hydrated particle.
This can be attributed to the very high concentration of ioforminol in the 320 mg I/ml solution. […] However, the percentage only increases to approximately 36% when the concentrated ioforminol composition was diluted more than fourfold. The result of this phenomenon is the linear correlation between ioforminol concentration, salt concentration and osmolality in the interval 70-330 mg I/ml Ioforminol.

net contribution of ioforminol to osmolality (320 mg I/ml, contribution of Tris, EDTA, NaCl and CaCl2 subtracted): around 129 mOsmol/kg | percentage of the expected theoretical osmolality (320 mg I/ml, theoretical = every ioforminol molecule acts as one hydrated particle): approximately 22% | percentage contribution to osmolality after autoclaving (121° C. for approximately 15 minutes): does not change | percentage of the expected theoretical osmolality (after more than fourfold dilution from 320 to 70 mg I/ml): approximately 36% | osmolality compared to theoretical value (aqueous solution, theoretical = one molecule acts as one hydrated particle): lower
SMILES: O=CN(CC(O)CN(C=O)c1c(I)c(C(=O)NCC(O)CO)c(I)c(C(=O)NCC(O)CO)c1I)c1c(I)c(C(=O)NCC(O)CO)c(I)c(C(=O)NCC(O)CO)c1I (centres unmarked) [ioforminol, 5-[formyl-[3-[formyl-[3,5-bis(2,3-dihydroxypropylcarbamoyl)-2,4,6-triiodophenyl]amino]-2-hydroxypropyl]amino]-N,N′-bis(2,3-dihydroxypropyl)-2,4,6-triiodobenzene-1,3-dicarboxamide]
